In patent publication US11434246B2, “EP4 antagonists” (Eisai R&D Management Co., Ltd., priority 2015, dated 2022):

Key:
[1] = tested on: 4T1 cells; experiment: In vivo anti-tumor pharmacology, mouse breast 4T1 syngeneic tumor model
Description: In vivo Anti-tumor Pharmacology: 4T1 cells were maintained in RPMI 1640 medium supplemented with 10% FBS at 37° C. and 5% CO2 atmosphere. Cell detachment was obtained using standard trypsinization methods, quantification of cell numbers and viability information using the NC-200 automated cell counter. Compound 1 was thoroughly suspended in 0.5% methyl cellulose (MC) by sonication at 4° C. for 15 min before oral administration (p.o.) to animals. BALB/c mice were injected subcutaneously (s.c.) with live 1×10^5 4 T1 cells. Mice developed tumors of approximately 36 mm^3 in 5 days. 4T1 tumor-bearing mice were randomized and mapped into 5 groups of 10 mice each: group A received vehicle (0.5% MC); group B received 0.1 mg/kg of compound 1; group C received 1 mg/kg of compound 1, group D received 25 mg/kg of compound 1; and group E received 150 mg/kg of compound 1. All treatments were give p.o. daily for 21 consecutive days. Tumor volumes and body weights were measured twice weekly. Study was terminated 27 days after tumor cell injection. Tumor volumes were expressed as mean±SEM. Tumor volume differences among treated mouse groups on day 27 were analyzed by the one-way ANOVA followed by Tukey's test. P≤0.05 values were considered significant.

[2] = molecular target: T1, EP4 (Homo sapiens, UniProt P35408); experiment: EP4 Antagonism by CRE-PLAP Reporter Assay (SE302 cells, PGE2-stimulated); type: cell-based; design: HEK293 cells express endogenous EP4; endogenous in cells; host or cells: SE302 (HEK293 clone with CRE-PLAP reporter); details: SE302 (HEK293) cells, 3 ng/mL PGE2, overnight; single or multiple assay average values
T1 sequence (P35408 whole entry): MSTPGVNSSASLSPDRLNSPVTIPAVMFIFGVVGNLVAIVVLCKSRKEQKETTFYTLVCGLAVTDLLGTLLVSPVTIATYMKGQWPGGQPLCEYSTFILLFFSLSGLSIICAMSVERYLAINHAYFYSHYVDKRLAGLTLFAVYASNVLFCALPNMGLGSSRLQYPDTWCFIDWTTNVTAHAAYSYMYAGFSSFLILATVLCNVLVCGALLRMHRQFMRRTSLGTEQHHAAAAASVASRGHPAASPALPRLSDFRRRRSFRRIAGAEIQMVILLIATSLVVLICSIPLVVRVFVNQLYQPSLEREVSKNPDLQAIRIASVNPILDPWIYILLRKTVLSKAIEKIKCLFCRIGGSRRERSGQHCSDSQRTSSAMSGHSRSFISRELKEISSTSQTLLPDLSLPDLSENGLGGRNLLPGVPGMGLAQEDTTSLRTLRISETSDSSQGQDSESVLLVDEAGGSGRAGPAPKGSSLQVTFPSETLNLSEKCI
Summary of the method: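 HEK293-derived SE302 cells with endogenous EP4 and CRE-driven secreted PLAP, in serum-free medium with 0.1% BSA, stimulated overnight with 3 ng/mL PGE2 plus compound. Supernatant PLAP read by luminescence (pH 11 carbonate buffer, 2 h). IC50 from % of control, normalized to DMSO with and without PGE2.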

[3] = molecular target: T2, mouse EP4 receptor (Mus musculus, UniProt P32240); experiment: Competitive Radioligand EP4 Receptor Binding Assay ([3H]-PGE2, U2OS membranes); details: mouse EP4-overexpressing cell membrane fraction, 12 nM [3H]-PGE2; read-out: Ki of inhibition of radiolabelled PGE2 binding, mouse EP4
T2 construct: purchased Genscript; host or cells: U2OS clone
T2 sequence (P32240 whole entry): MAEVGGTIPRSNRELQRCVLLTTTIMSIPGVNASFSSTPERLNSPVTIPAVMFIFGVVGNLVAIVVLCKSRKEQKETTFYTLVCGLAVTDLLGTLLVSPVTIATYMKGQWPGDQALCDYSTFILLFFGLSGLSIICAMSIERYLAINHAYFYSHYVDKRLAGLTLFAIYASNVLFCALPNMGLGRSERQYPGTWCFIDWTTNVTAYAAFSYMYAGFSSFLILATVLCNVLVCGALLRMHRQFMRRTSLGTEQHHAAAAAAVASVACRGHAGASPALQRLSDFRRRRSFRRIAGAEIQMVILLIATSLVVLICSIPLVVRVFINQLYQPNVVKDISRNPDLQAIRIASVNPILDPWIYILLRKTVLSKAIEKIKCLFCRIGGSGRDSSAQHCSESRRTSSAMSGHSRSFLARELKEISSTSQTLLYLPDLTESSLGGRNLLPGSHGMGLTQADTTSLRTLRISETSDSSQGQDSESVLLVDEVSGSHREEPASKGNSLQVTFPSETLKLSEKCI
Description: (§1) Competitive Radioligand EP4 Receptor Binding Assay: The assay was performed using ChemiScreen recombinant human EP4 receptor membrane preparations from Millipore using Chem-1 cells and mouse EP4 receptor membrane preparations from Genscript using U2OS clone, according to manufacturer's instructions. For human EP4 binding, 10 μg Chem-1 cell membranes overexpressing human EP4 cDNA were mixed with 12 nM [^3H]-PGE2 and 5 μmol/L unlabeled PGE2 or 0.1% DMSO in the presence or absence of various concentrations of testing compounds in binding buffer (50 mM HEPES, pH 7.4, 5 mM MgCl2, 1 mM CaCl2, 0.2% BSA) in a nonbinding 96-well plate, and incubated for 2 h at room temperature. For mouse EP4 binding, 60 μg of U2OS membranes were used in the same condition. Prior to filtration, a GF/C 96-well filter plate was coated with 0.33% polyethyleneimine for 30 min, then washed with 50 mM HEPES, pH 7.4, 0.5% BSA. Binding reactions were transferred to the filter plate, and washed 3 times with assay Wash Buffer (50 mM HEPES, pH7.4, 500 mM NaCl, 0.1% BSA). The plate was dried and radioactivity counted. The data were processed using PRISM software, and IC50 and Ki values were calculated using the same software.

[4] = molecular target: T1, EP4; experiment: Competitive Radioligand EP4 Receptor Binding Assay ([3H]-PGE2, Chem-1 cell membranes); design: purchased Millipore; host or cells: Chem-1 cells; details: human EP4-overexpressing cell membrane fraction, 12 nM [3H]-PGE2; read-out: Ki of inhibition of radiolabelled PGE2 binding, human EP4
Description: as §1

Row | Compound | IC50 [2] | other results
1 | C[C@H](NC(=O)c1c(C(F)(F)F)nn2c1N(Cc1cccc(C(F)(F)F)c1)CC2)c1ccc(C(=O)O)cc1 [Compound 1, (S)-4-(1-(6-(trifluoromethyl)-1-(3-(trifluoromethyl)benzyl)-2,3-dihydro-1H-imidazo[1,2-b]pyrazole-7-carboxamido)ethyl)benzoic Acid] | 0.34 nM | gross toxicity judged from animal body weight and overall animal behavior ([1]; 0.1-150 mg/kg p.o. daily for 21 days, BALB/c mice): None of the doses tested showed gross toxicity; tumor growth inhibition ([1]; 0.1 and 1.0 mg/kg p.o. daily for 21 days, day 27): some inhibition was observed, but without statistical significance; tumor growth inhibition ([1]; 25 and 150 mg/kg p.o. daily for 21 days, day 27): Statistically significant inhibition of tumor growth; tumor growth inhibition ([1]; 25 and 150 mg/kg p.o. daily for 21 days, day 27, listed as compound 1): significant and comparable anti-tumor activity; tumor growth inhibition ([1]; BALB/c mice, 4T1 s.c. tumors, p.o. daily for 21 days, range 0.1 mg/kg-150 mg/kg): inhibited the tumor growth in a dose-dependent manner; Ki [3]: 26.3 nM; Ki [4]: 4.2 nM
2 | C[C@H](NC(=O)c1c(C(F)(F)F)nn2c1N(Cc1cccc(C(F)(F)CO)c1)CC2)c1ccc(C(=O)O)cc1 [Compound 95, (S)-4-(1-(1-(3-(1,1-Difluoro-2-hydroxyethyl)benzyl)-6-(trifluoromethyl)-2,3-dihydro-1H-imidazo[1,2-b]pyrazole-7-carboxamido)ethyl)benzoic Acid] | 4.26 nM | 
3 | C[C@H](NC(=O)c1c(C(F)(F)F)nn2c1N(Cc1cccc(CCCF)c1)CC2)c1ccc(C(=O)O)cc1 [Compound 96, (S)-4-(1-(1-(3-(3-Fluoropropyl)benzyl)-6-(trifluoromethyl)-2,3-dihydro-1H-imidazo[1,2-b]pyrazole-7-carboxamido)ethyl)benzoic Acid] | 0.866 nM | 
4 | C[C@H](NC(=O)c1c(C(F)(F)F)nn2c1N(Cc1ccc(CCCF)cc1)CC2)c1ccc(C(=O)O)cc1 [Compound 97, (S)-4-(1-(1-(4-(3-fluoropropyl)benzyl)-6-(trifluoromethyl)-2,3-dihydro-1H-imidazo[1,2-b]pyrazole-7-carboxamido)ethyl)benzoic Acid] | 21.8 nM | 
5 | C[C@H](NC(=O)c1c(C(F)(F)F)nn2c1N(Cc1ccc(CCCF)c(C(F)(F)F)c1)CC2)c1ccc(C(=O)O)cc1 [Compound 98, (S)-4-(1-(1-(4-(3-Fluoropropyl)-3-(trifluoromethyl)benzyl)-6-(trifluoromethyl)-2,3-dihydro-1H-imidazo[1,2-b]pyrazole-7-carboxamido)ethyl)benzoic Acid] | 17.7 nM | 
6 | C[C@H](NC(=O)c1c(C(F)(F)F)nn2c1N(Cc1cc(CCCF)cc(C(F)(F)F)c1)CC2)c1ccc(C(=O)O)cc1 [Compound 99, (S)-4-(1-(1-(3-(3-Fluoropropyl)-5-(trifluoromethyl)benzyl)-6-(trifluoromethyl)-2,3-dihydro-1H-imidazo[1,2-b]pyrazole-7-carboxamido)ethyl)benzoic Acid] | 11.6 nM | 
7 | C[C@H](NC(=O)c1c(C(F)(F)CO)nn2c1N(Cc1cccc(C(F)(F)F)c1)CC2)c1ccc(C(=O)O)cc1 [Compound 100, (S)-4-(1-(6-(1,1-Difluoro-2-hydroxyethyl)-1-(3-(trifluoromethyl)benzyl)-2,3-dihydro-1H-imidazo[1,2-b]pyrazole-7-carboxamido)ethyl)benzoic Acid] | 8.96 nM | 
8 | C[C@H](NC(=O)c1c(C(F)(F)F)nn2c1N(Cc1cccc(C(F)(F)F)c1)CC2)c1ccc(C(=O)NC2(C#N)CC2)cc1 [Compound 101, (S)—N-(1-(4-((1-Cyanocyclopropyl)carbamoyl)phenyl)ethyl)-6-(trifluoromethyl)-1-(3-(trifluoromethyl)benzyl)-2,3-dihydro-1H-imidazo[1,2-b]pyrazole-7-carboxamide] | 32.9 nM | 
9 | COC(=O)c1ccc([C@H](C)NC(=O)c2c(C(F)(F)F)nn3c2N(C(=O)c2ccccc2F)CC3)cc1 [Compound 102] | 39 nM | 
